Reference: patent US20030187067A1, “Use of anethole-dithiolethione for preventing and treating drug-induced tendon toxicity” (priority 2000, published 2003)

Tested on: immortalised tenocytes, known as TENO (Teno Cell Line)
Experiment: type II MIFALC (Microtitration Fluorimetric Assay on Living Cells) test, H2DCF-DA fluorescence, tendon toxicity of fluoroquinolones/statins
Type: cell-based
Settings: pretreatment with anethole-dithiolethione 20 μM, 72 hours before contact with the xenobiotics; free radicals by H2DCF-DA fluorescence read after 40 minutes
Experimental: The test carried out is a type II MIFALC (Microtitration Fluorimetric Assay on Living Cells) test, that is to say that all of the steps, including detection/disclosure, are carried out on living cells, the test using fluorimetric detection under cold light, in order to achieve the maximum level of detection sensitivity and specificity necessary for the intracellular studies. The tests are carried out on a line of immortalised tenocytes, known as TENO (Teno Cell Line).
The cultures are produced in […] flasks for cell multiplication and in plates having 96 shallow wells for culture.
The tenocytes are placed in suspension with a small amount of trypsin. When the cells are released, the action of the trypsin is blocked by the addition of culture medium containing fetal calf serum. After centrifuging, the residue is taken up by complete medium HAM F-12, then the cells are counted using a Malassez or Thoma hemocytometer. Next, a solution of 27,500 cells/ml is prepared in the complete culture medium and 200 μl are placed in each of the central 60 wells of the microplates having 96 wells. Therefore, there are 5,500 cells per well. The plates are placed in incubation at 37° C. in a humid atmosphere of air/CO2 (95%/5%). The test is carried out after 48 hours when the cells adhere to the support. […]
The fluorescence units are read after 40 minutes.

COc1ccc(-c2cc(=S)ss2)cc1 [anethole-dithiolethione]
protection against tendon toxicity (cytotoxic effect) of fluoroquinolones in cellular tenocyte model: protects against this tendon toxicity
